Data from publication PMC11903733 (Frontiers in Pharmacology, 2025).

What was measured:
MV-4-11 cells = test: MTS cell proliferation assay; format: cell-based; conditions: Homo sapiens, MV4-11, LSD1-addicted MV-4-11 leukemia cells, 72 h
Method: (§1) The myeloid leukemia cell lines MV-4-11, MOLT-4, MOLM-16, HL-60, and the human B lymphocyte cell line […] were purchased from the American Type Culture Collection (ATCC, Manassas, VA, United States). The myeloid leukemia cell line HAL-01 was obtained from the Deutsche Sammlung von Mikroorganismen und Zellkulturen GmbH (DSMZ, Braunschweig, Germany). All cells were cultured in IMDM or RPMI -1640 medium supplemented with 10% FBS, 100 U/mL penicillin, and 100 μg/mL streptomycin. The cells were maintained in a humidified incubator with an atmosphere of 5% CO2 at 37°C.
(§2) The in vitro anti-proliferative activity of the compounds was determined using the CellTiter 96® AQueous NonRadioactive Cell Proliferation Assay Kit (Promega, Madison, United States) as previously described ([Ji et al., 2017]). In brief, 5–10 × 10^3 cells and 180 μL of medium were first seeded into each well of a 96-well plate. Subsequently, the cells were exposed to either 0.2% Dimethyl sulfoxide (DMSO, Aladdin Reagent, Shanghai, China) or a serial dilution of the compounds, prepared from a 10 mM stock solution in DMSO, with the final concentration of DMSO being 0.2% for 72 h. 20 μL of MTS reagent was added to each well, and the culture was incubated in the dark at 37°C for 4 h. Finally, the optical density (OD) was then recorded at 490 nm and 690 nm using a microplate reader from Molecular Devices. The proliferation inhibition rate was calculated according to the following formula: inhibition ratio = (OD of DMSO treated wells - OD of compound treated wells)/(OD of DMSO treated wells - OD of blank wells) × 100%. The IC50 values of the compounds inhibiting cell proliferation were calculated using GraphPad Prism 10 (GraphPad Software Inc., San Diego, CA).

RPMI-8226 cells = test: MTS cell proliferation assay; format: cell-based; conditions: Homo sapiens, LSD1-non-sensitive RPMI-8226 cells, 72 h
Method: as §1, §2

[1] = test system: MOLT-4, MOLM-16, HAL-01, and HL-60; test: MTS cell proliferation assay, other AML cell lines together; format: cell-based; conditions: range over MOLT-4, MOLM-16, HAL-01, HL-60; read-out: IC50 across other AML cell lines
Method: as §1
The in vitro anti-proliferative activity of the compounds was determined using the CellTiter 96® AQueous NonRadioactive Cell Proliferation Assay Kit (Promega, Madison, United States) as previously described ([Ji et al., 2017]). In brief, 5–10 × 10^3 cells and 180 μL of medium were first seeded into each well of a 96-well plate. […] Finally, the optical density (OD) was then recorded at 490 nm and 690 nm using a microplate reader from Molecular Devices. […] The IC50 values of the compounds inhibiting cell proliferation were calculated using GraphPad Prism 10 (GraphPad Software Inc., San Diego, CA).

MOLT-4 = test: MTS cell proliferation assay; format: cell-based; conditions: Homo sapiens, growth inhibition after 72 h
Method: as §1, §2
(§3) ^aIC50 (μM) is the concentration of compound needed to reduce cell growth by 50% after 72 h treatment with LTM-1.

HL-60 = test: MTS cell proliferation assay; format: cell-based; conditions: Homo sapiens, growth inhibition after 72 h
Method: as §1, §2, §3

HAL-01 = test: MTS cell proliferation assay; format: cell-based; conditions: Homo sapiens, growth inhibition after 72 h
Method: as §1, §2, §3

MOLM-16 = test: MTS cell proliferation assay; format: cell-based; conditions: MOLM16; growth inhibition after 72 h
Method: as §1, §2, §3

60 different kinases = test: SelectScreen kinase profiling, whole panel; format: biochemical; conditions: ten-point dilution 0.25 μM to 128 μM; read-out: IC50 against each of the 60 evaluated kinases
Method: The kinase selectivity analysis of LTM-1 was performed utilizing the SelectScreen Kinase Profiling Service offered by Thermo Fisher Scientific. In a dose-response assay featuring a ten-point dilution series from 0.25 μM to 128 μM, the inhibitory effects of LTM-1 on substrate phosphorylation reactions catalyzed by a panel of kinases were assessed. Consequently, the half-maximal inhibitory concentrations (IC50 values) for each kinase were determined.

MV-4-11 xenograft = MV-4-11 xenograft model, anti-tumor activity; format: in vivo, BALB/c nude mice; conditions: 10 mg/kg intraperitoneal daily, 15 days, versus vehicle group
Source text: Given the potent inhibitory effect of LTM-1 on MV-4-11 cell proliferation in vitro, a previously reported xenograft animal model was established to measure the anti-tumor growth and development effects of LTM-1 ([Zhou et al., 2022]). The animal experimental design of this study was reviewed and confirmed by the Ethics Committee of China Pharmaceutical University. The experimental procedures complied with the ARRIVE guidelines (https://arriveguidelines.org/). Female BALB/c nude mice aged 4–6 weeks were purchased from Changzhou Cave Animal Co., Ltd. (Changzhou, China). Mice were housed in a specific pathogen-free (SPF) environment, where the temperature was precisely regulated to 25°C ± 2°C, the relative humidity was kept at 50% ± 5%, and a strict 12-h light-dark cycle was maintained. A 200 μL suspension of MV-4-11 cells (1 × 10^6 cells) was injected subcutaneously into the mice. […] The mice were administered drugs via intraperitoneal injection daily, with a total treatment period of 15 days. Mouse weight and tumor volume were measured every 3 days. The tumor volume was calculated using the formula (c × c × d)/2 (where c represents the smallest diameter, and d represents the largest diameter). […] In addition, the liver and kidney index levels were measured using an automatic biochemical analyzer to evaluate the toxic effects of LTM-1 on mice.

[2] = Toxicity in xenografted mice: body weight, serum liver and kidney indices; format: in vivo, BALB/c nude mice
Source text: Given the potent inhibitory effect of LTM-1 on MV-4-11 cell proliferation in vitro, a previously reported xenograft animal model was established to measure the anti-tumor growth and development effects of LTM-1 ([Zhou et al., 2022]). The animal experimental design of this study was reviewed and confirmed by the Ethics Committee of China Pharmaceutical University. The experimental procedures complied with the ARRIVE guidelines (https://arriveguidelines.org/). Female BALB/c nude mice aged 4–6 weeks were purchased from Changzhou Cave Animal Co., Ltd. (Changzhou, China). Mice were housed in a specific pathogen-free (SPF) environment, where the temperature was precisely regulated to 25°C ± 2°C, the relative humidity was kept at 50% ± 5%, and a strict 12-h light-dark cycle was maintained. A 200 μL suspension of MV-4-11 cells (1 × 10^6 cells) was injected subcutaneously into the mice. […] The mice were administered drugs via intraperitoneal injection daily, with a total treatment period of 15 days. Mouse weight and tumor volume were measured every 3 days. The tumor volume was calculated using the formula (c × c × d)/2 (where c represents the smallest diameter, and d represents the largest diameter). When the animals could no longer access food and/or the average tumor diameter exceeded 15 mm, the mice were anesthetized with 2.5% isoflurane and euthanized by cervical dislocation to minimize suffering. In addition, the liver and kidney index levels were measured using an automatic biochemical analyzer to evaluate the toxic effects of LTM-1 on mice.

[3] = compared to the vehicle control group

IC50 (MV-4-11 cells): 0.16 ± 0.01 µM
IC50 (RPMI-8226 cells): > 100 µM
IC50 [1]: 190 to 390 nM
IC50 (MOLT-4): 0.19 ± 0.01 µM
IC50 (HL-60): 0.39 ± 0.03 µM
IC50 (MOLM-16): 0.27 ± 0.02 µM
IC50 (60 different kinases): > 10000 nM
Compound: O=S(=O)(c1ccc(C(O)CO)c(C(F)(F)F)c1)N1CCc2cc(C3CC3NCC3CCNCC3)ccc21 (stereo not drawn) [LTM-1]
IC50 (HAL-01): 0.25 ± 0.01 µM
tumor growth (tumor volume) (MV-4-11 xenograft): significantly reduced
body weight of mice ([2]; 10 mg/kg intraperitoneal daily, 15 days, versus vehicle group): no significant differences
liver and kidney function indices ([2]; LTM-1 treated MV-4-11 xenografted mice): did not induce significant changes
alanine aminotransferase (ALT) level in mouse serum [2, 3]: no significant changes
aspartate aminotransferase (AST) level in mouse serum [2, 3]: no significant changes
blood urea nitrogen (BUN) level in mouse serum [2, 3]: no significant changes
creatinine (CRE) level in mouse serum [2, 3]: no significant changes
